Results published in US20240109912A1, “TRICYCLIC PYRIMIDINES AS CYCLIN-DEPENDENT KINASE 7 (CDK7) INHIBITORS” (JANSSEN PHARMACEUTICA NV, priority 2020, published 2024).
Several values for one entry are separate records, joined by “and”; a condition that tells them apart may be missing. Identical values can stand only once. Like-named read-outs stand apart in the source and are kept apart here.

Legend:
[1] = system: RNA polymerase II Serine 5 phosphorylation in A549 cells overexpressing CDK7 mutant (C312S); test: Imaging-based cellular RNA PolII Ser5 phosphorylation assay in A549 cells overexpressing CDK7-mutant (C312S); assay type: cell-based, human; conditions: for IC50: Homo sapiens, A549, A549 cells overexpressing CDK7 mutant (C312S), read-out: CDK7_ A549 mutant hCDK7(pIC50) (converted); for CDK7_ A549 mutant hCDK7(pIC50): A549 cells overexpressing CDK7 mutant (C312S)
How it was run: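 A stably transduced A549 pool overexpressing CDK7 C312S, a mutant that blocks covalent binding at Cys312, while retaining endogenous wild-type CDK7 was used. Ser5 phosphorylation was measured by imaging, and IC50 values were derived.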

[2] = molecular target: CDK7/cyclinH/MAT1 trimeric complex (Homo sapiens (Human), UniProt P50613); test: In vitro CDK7 assay, potency of irreversible covalent inhibitors (kinact/KI)
Chain of CDK7/cyclinH/MAT1 trimeric complex (P50613 whole entry): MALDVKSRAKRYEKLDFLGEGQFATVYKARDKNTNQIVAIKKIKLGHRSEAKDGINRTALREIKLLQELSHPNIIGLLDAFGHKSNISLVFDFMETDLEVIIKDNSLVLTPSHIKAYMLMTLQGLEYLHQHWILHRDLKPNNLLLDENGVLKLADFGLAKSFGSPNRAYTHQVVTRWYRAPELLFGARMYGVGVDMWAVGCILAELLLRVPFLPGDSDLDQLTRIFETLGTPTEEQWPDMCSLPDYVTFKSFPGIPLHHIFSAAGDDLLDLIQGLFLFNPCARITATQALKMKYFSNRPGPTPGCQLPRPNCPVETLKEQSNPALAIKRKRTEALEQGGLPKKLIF
Chain of CDK7/cyclinH/MAT1 trimeric complex (P51946 whole entry partner): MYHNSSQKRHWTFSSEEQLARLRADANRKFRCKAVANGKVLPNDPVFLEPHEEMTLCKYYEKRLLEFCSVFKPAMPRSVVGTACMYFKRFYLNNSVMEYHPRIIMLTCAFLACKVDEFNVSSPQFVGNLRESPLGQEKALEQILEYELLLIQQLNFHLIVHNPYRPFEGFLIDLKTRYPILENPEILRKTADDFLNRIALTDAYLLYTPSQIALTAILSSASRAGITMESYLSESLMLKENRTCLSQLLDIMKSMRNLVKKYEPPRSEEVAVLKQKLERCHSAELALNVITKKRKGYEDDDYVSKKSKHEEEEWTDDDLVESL
Chain of CDK7/cyclinH/MAT1 trimeric complex (P51948 whole entry partner): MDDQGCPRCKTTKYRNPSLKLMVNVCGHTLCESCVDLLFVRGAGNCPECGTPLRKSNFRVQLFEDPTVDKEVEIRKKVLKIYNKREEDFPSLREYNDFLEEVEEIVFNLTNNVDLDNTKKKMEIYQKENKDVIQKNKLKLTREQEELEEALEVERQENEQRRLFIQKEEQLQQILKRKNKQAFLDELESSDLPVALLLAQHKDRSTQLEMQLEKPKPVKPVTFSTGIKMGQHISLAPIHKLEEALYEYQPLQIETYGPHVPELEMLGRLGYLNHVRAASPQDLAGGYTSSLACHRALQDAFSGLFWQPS

[3] = system: RNA polymerase II Serine 5 phosphorylation (CDK7) in A549 cells
[4] = CDK7 (20 nM enz.) (KI, μM), 20 nM enz.
[5] = read-out: CDK7 (20 nM enz.) (kinact, s^−1), 20 nM enz.
[6] = read-out: CDK7 (20 nM enz.) (kinact/ KI, M^−1*s^−1), 20 nM enz.
[7] = read-out: CDK7 (20 nM enz.) (kobs/[I], M^−1*s^−1), 20 nM enz.

SMILES | melting point [°C] | IC50 [1] [µM] | Ki [2, 4] | Ki ([2]; CDK7 (KI(μM)), Table B) | kinact [2, 5] [s⁻¹] | kinact/KI [2, 6] [M⁻¹ s⁻¹] | CDK7_ A549 mutant hCDK7(pIC50) [1] | CDK7 (20 nM enz.) (kinact, s^−1) ([2]; 20 nM enz.) [s⁻¹] | CDK7 (20 nM enz.) (kobs/[I], M^−1*s^−1) ([2]; 20 nM enz.) [M⁻¹ s⁻¹] | kinact/KI [2, 7] [M⁻¹ s⁻¹] | IC50 [3] | CDK7 (20 nM enz.) (kinact/ KI, M^−1*s^−1) ([2]; 20 nM enz.) [M⁻¹ s⁻¹] | kinact ([2]; read-out: CDK7 (kinact, s^−1), Table B) [s⁻¹] | kinact/KI ([2]; read-out: CDK7 (kinact/KI, M^−1*s^−1), Table B) [M⁻¹ s⁻¹]
C=CC(=O)N1CC(N2CCC(c3cc4c(cn3)O[C@@H](C)c3c(ncnc3N3CCOCC3)N4)CC2)C1 (single isomer, unassigned) [compound 62] | 253 | > 3.98 | 0.504 µM and 2.05 µM | – | 5.74e-05 | – | <5.4 | 4.79e-05 | – | – | – | – | – | –
CC#CC(=O)N1CCC(N2CC(c3cc(C)c4c(c3)Nc3ncnc(N5CCS(=O)(=O)CC5)c3[C@H](C)O4)C2)CC1 (single isomer, unassigned) [compound 125] | 203 | 6.76 | – | – | – | – | 5.26 | – | – | – | ~0.0178 µM and ~0.0269 µM | – | – | –
C=CC(=O)N1CCC(N2CC(c3cc(F)c4c(c3)Nc3ncnc(N5CCOCC5)c3[C@H](C)O4)C2)CC1 [compound 26] | – | > 10 | 0.336 µM | – | 4.84e-05 | 203 | – | – | – | – | 0.288 µM | – | – | –
C=CC(=O)N1CC[C@@H](N2CC(c3cc(C)c4c(c3)Nc3ncnc(N5CCS(=O)(=O)CC5)c3[C@H](C)O4)C2)C1 (single isomer, unassigned) [compound 118] | – | > 10 | 0.28 µM and 0.281 µM | – | 4.2e-05 | 150 | <5 | 5.02e-05 | – | – | 0.204 µM and 0.339 µM | 179.017 | – | –
C=CC(=O)N1CC[C@H](N2CC(c3cc(F)c4c(c3)Nc3ncnc(N5CCOCC5)c3CO4)C2)C1 (single isomer, unassigned) [compound 54] | – | > 10 | 1.36 µM | – | 7.77e-05 | 57.2 | – | – | – | – | 1.05 µM | – | – | –
C=CC(=O)N1CCC(N2CC(c3cc(C#N)c4c(c3)Nc3ncnc(N5CCOCC5)c3CO4)C2)CC1 [compound 120] | – | > 10 | 0.295 µM | – | 3.8e-05 | 129 | – | – | – | – | 0.525 µM | – | – | –
CC#CC(=O)N1CC(N2CCC(c3cc4c(c(C)n3)O[C@@H](C)c3c(ncnc3N3CCS(=O)(=O)CC3)N4)CC2)C1 (single isomer, unassigned) [compound 140] | – | > 10 | 2.57 µM | – | 8.1e-05 | 31.5 | – | – | – | – | 3.16 µM | – | – | –
C=CC(=O)N1CC(N2CCC(c3cc(C#N)c4c(c3)Nc3ncnc(-c5cnn(C)c5)c3CO4)CC2)C1 [compound 74] | – | > 10 | 0.132 µM | – | 5.42e-05 | 412 | – | – | – | – | 1.17 µM | – | – | –
C=CC(=O)N1CC(N2CCC(c3ccc4c(c3)Nc3ncnc(C5CCOCC5)c3CO4)CC2)C1 [compound 38] | – | > 10 | – | 0.251 µM | – | – | – | – | – | – | 1.15 µM | – | 9.7e-05 | 386
C=CC(=O)N1CC(N2CCC(c3ccc4c(c3)Nc3ncnc(N5CCOCC5)c3[C@@H](C)O4)CC2)C1 (single isomer, unassigned) [compound 56] | – | > 10 | 4.2 µM | – | 8.48e-05 | 20.2 | – | – | – | – | 3.24 µM | – | – | –
C#Cc1cc(C2CN([C@H]3CCN(C(=O)C=C)C3)C2)cc2c1O[C@H](C)c1c(ncnc1N1CCS(=O)(=O)CC1)N2 [compound 193] | – | > 10 | 0.156 µM | – | 2.62e-05 | 168 | – | – | – | – | 0.513 µM | – | – | –
C=CC(=O)N1CCC(N2CC(c3cc(F)c4c(c3)Nc3ncnc(N5CCOCC5)c3[C@@H](C)O4)C2)CC1 [compound 27] | – | > 10 | 5.21 µM | – | 4.89e-05 | 9.39 | – | – | – | – | 4.79 µM | – | – | –

Results, then the compound that gave them:

melting point [°C] | IC50 [1] [µM] | Ki [2, 4] | Ki ([2]; CDK7 (KI(μM)), Table B) | kinact [2, 5] [s⁻¹] | kinact/KI [2, 6] [M⁻¹ s⁻¹] | CDK7_ A549 mutant hCDK7(pIC50) [1] | CDK7 (20 nM enz.) (kinact, s^−1) ([2]; 20 nM enz.) [s⁻¹] | CDK7 (20 nM enz.) (kobs/[I], M^−1*s^−1) ([2]; 20 nM enz.) [M⁻¹ s⁻¹] | kinact/KI [2, 7] [M⁻¹ s⁻¹] | IC50 [3] | CDK7 (20 nM enz.) (kinact/ KI, M^−1*s^−1) ([2]; 20 nM enz.) [M⁻¹ s⁻¹] | kinact ([2]; read-out: CDK7 (kinact, s^−1), Table B) [s⁻¹] | kinact/KI ([2]; read-out: CDK7 (kinact/KI, M^−1*s^−1), Table B) [M⁻¹ s⁻¹] | SMILES
184 | > 10 | 0.389 µM | 0.598 µM and 0.167 µM and 0.608 µM and 0.285 µM | 9.1e-05 | 234 | – | – | – | – | – | – | – | – | C=CC(=O)N1CC(N2CCC(c3ccc4c(c3)Nc3ncnc(N5CCOCC5)c3CO4)CC2)C1 [compound 1]
169 | > 10 | 0.077 µM and 0.0323 µM | – | 5.87e-05 | – | – | 8.74e-05 | 1455 | 1460 | – | – | – | – | C=CC(=O)N1CC(N2CCC(c3cc(C)c4c(c3)Nc3ncnc(N5CCS(=O)(=O)CC5)c3CO4)CC2)C1 [compound 101]
226 | ~6.61 | – | – | – | – | 5.25 and 5.24 and 5.16 | – | – | – | – | – | – | – | C=CC(=O)N1CCC(N2CC(c3cc(C)c4c(c3)Nc3ncnc(N5CCS(=O)(=O)CC5)c3[C@H](C)O4)C2)CC1 (single isomer, unassigned) [compound 100]
– | > 10 | 0.716 µM | – | 6.7e-05 | 93.7 | – | – | – | – | 0.38 µM | – | – | – | C=CC(=O)N1CC[C@@H](N2CC(c3cc(C)c4c(c3)Nc3ncnc(N5CCOCC5)c3CO4)C2)C1 [compound 17]
– | > 10 | 0.32 µM | – | 4.18e-05 | 131 | – | – | – | – | 0.219 µM | – | – | – | C=CC(=O)N1CC(N2CCC(c3cc(C)c4c(c3)Nc3ncnc(-c5ccnn5C)c3CO4)CC2)C1 [compound 80]
– | > 10 | – | – | – | – | – | – | – | 1140 | 0.0501 µM | – | – | – | C=CC(=O)N1CCC(N2CCC(c3cc(C)c4c(c3)Nc3ncnc(N5CCS(=N)(=O)CC5)c3CO4)CC2)C1 (stereo not shown) [compound 104]
– | > 10 | 0.0322 µM | – | 4.3e-05 | 1330 | – | – | – | – | 0.813 µM | – | – | – | C=CC(=O)N1CC(N2CC(c3cc(C)c4c(c3)Nc3ncnc(N5CCS(=N)(=O)CC5)c3CO4)C2)C1 [compound 110]
– | > 10 | 0.533 µM | – | 4.78e-05 | 89.6 | – | – | – | – | 0.646 µM | – | – | – | C=CC(=O)N1CCC(N2CC[C@H](c3cc(C)c4c(c3)Nc3ncnc(N5CCOCC5)c3CO4)C2)CC1 [compound 24]
– | > 10 | 1.2 µM | – | 0.000103 | 85.8 | – | – | – | – | 1.32 µM | – | – | – | C=CC(=O)N1CC(N2CCC(c3cc(C)c4c(c3)Nc3ncnc(N5CCCC(C#N)C5)c3CO4)CC2)C1 (stereo not shown) [compound 67]
– | > 10 | 0.3 µM and 0.189 µM | – | 4.57e-05 | 152 | <5 | 3.89e-05 | – | – | 0.191 µM and 0.269 µM | 206.471 | – | – | C=CC(=O)N1CC[C@H](N2CC(c3cc(C)c4c(c3)Nc3ncnc(N5CCS(=O)(=O)CC5)c3[C@H](C)O4)C2)C1 (single isomer, unassigned) [compound 116]
– | > 10 | 0.0858 µM | – | 6.75e-05 | 786 | – | – | – | – | 0.245 µM | – | – | – | C=CC(=O)N1CC(N2CCC(c3cc(C#N)c4c(c3)Nc3ncnc(N5CCOCC5)c3CO4)CC2)C1 [compound 106]
– | > 10 | 0.408 µM | – | 5.42e-05 | 133 | – | – | – | – | 0.832 µM | – | – | – | C=CC(=O)N1CC(N2CCC(c3cc(F)c4c(c3)Nc3ncnc(-c5cnn(C)c5)c3CO4)CC2)C1 [compound 21]
– | 0.832 | – | – | – | – | – | – | – | 1090 | 0.138 µM | – | – | – | C=CC(=O)N1CC(N2CCC(c3cc(C)c4c(c3)Nc3ncnc(N5CCS(=N)(=O)CC5)c3CO4)CC2)C1 [compound 72]
– | > 10 | 0.0693 µM | – | 4.85e-05 | 699 | – | – | – | – | 0.646 µM | – | – | – | C=CC(=O)N1CC(N2CCC(c3cc(F)c4c(c3)Nc3ncnc(N5CCOCC5)c3CO4)CC2)C1 [compound 20]
